Reference: patent publication US20250025443A1, “COMPOUNDS AND METHODS FOR TREATING CORONA VIRUSES” (CLEAR CREEK BIO, INC., priority 2021, published 2025)

Each compound was assayed against SARS-CoV-2 Papain-Like Protease (PLpro) (Severe acute respiratory syndrome coronavirus 2 (2019-nCoV) (SARS-CoV-2), UniProt P0DTD1) (assay: biochemical). Conditions: PLpro enzymatic fluorescence assay; class symbols; read-out: PLpro IC50.

| Compound | IC50 [µM] |
| --- | --- |
| Cc1ccc(OCC2CCN2C)cc1C(=O)NC1(c2cc(-c3ccc(Cl)s3)cc3ccccc23)CC1 (stereo not drawn) [Compound 514, N-(1-(3-(5-Chlorothiophen-2-yl)naphthalen-1-yl)cyclopropyl)-2-methyl-5-((1-methylazetidin-2-yl)methoxy)benzamide] | < 0.1 |
| Cc1nnc(-c2cc(C3(NC(=O)c4cc(OC[C@@H]5CCN5)ccc4C)CC3)c3cccnc3c2)o1 [Compound 680, (S)-5-(Azetidin-2-ylmethoxy)-2-methyl-N-(1-(7-(5-methyl-1,3,4-oxadiazol-2-yl)quinolin-5-yl)cyclopropyl)benzamide] | < 0.1 |
| Cc1ccc(OC[C@@H]2CCN2C)cc1C(=O)NC1(c2cc(-c3ccc4ncnn4c3)cc3ncccc23)CC1 [Compound 700, (S)—N-(1-(7-([1,2,4]Triazolo[1,5-a]pyridin-6-yl)quinolin-5-yl)cyclopropyl)-2-methyl-5-((1-methylazetidin-2-yl)methoxy)benzamide] | < 0.1 |
| Cc1ccc(NC2CN(C(=O)OC(C)(C)C)C2)cc1C(=O)NC(C)c1cccc2c1CCCC2 (stereo not drawn) [Compound 181] | > 5 |
| Cc1ccc([N+](=O)[O-])cc1C(=O)N[C@H](C)c1cccc2ccccc12 [Compound 104, (R)-2-Methyl-N-(1-(naphthalen-1-yl)ethyl)-5-nitrobenzamide] | > 5 |
| COc1cc(C2(NC(=O)c3cc(OC[C@H]4C[C@H](F)CN4C)ccc3C)CC2)c2ccccc2c1 [Compound 531, 5-(((2R,4S)-4-Fluoro-1-methylpyrrolidin-2-yl)methoxy)-N-(1-(3-methoxynaphthalen-1-yl)cyclopropyl)-2-methylbenzamide] | < 0.1 |
| Cc1ccc(OC[C@@H]2CCN2C)cc1C(=O)NC1(c2cc(NCC(F)(F)F)cc3ncccc23)CC1 [Compound 759, (S)-2-Methyl-5-((1-methylazetidin-2-yl)methoxy)-N-(1-(7-((2,2,2-trifluoroethyl)amino)quinolin-5-yl)cyclopropyl)benzamide] | < 0.1 |
| C=Cc1cc(C2(NC(=O)c3cc(OCCNC)ccc3C)CC2)c2cccnc2c1 [Compound 615, 2-Methyl-5-(2-(methylamino)ethoxy)-N-(1-(7-vinylquinolin-5-yl)cyclopropyl)benzamide] | < 0.1 |

Same assay, conditions: SARS-CoV-2 PLpro enzymatic fluorescence assay; read-out: PLpro IC50

| Compound | IC50 [µM] |
| --- | --- |
| C[C@@H](NC(=O)c1ccc2nc[nH]c2c1)c1cccc2ccccc12 [Compound 125, (R)-N-(1-(Naphthalen-1-yl)ethyl)-1H-benzo[d]imidazole-6-carboxamide] | > 5 |
| 2-Methyl-N-(1-(naphthalen-1-yl)cyclopropyl)-5-(piperidin-2-ylmethoxy)benzamide [Compound 339] | < 0.1 |
| Cc1ccc(OCC2CCN2CC2CC2)cc1C(=O)NC1(c2cccc3ccccc23)CC1 (stereo not drawn) [Compound 332, 5-((1-(Cyclopropylmethyl)azetidin-2-yl)methoxy)-2-methyl-N-(1-(naphthalen-1-yl)cyclopropyl)benzamide] | < 0.1 |
| CNCCOc1ccc(C)c(C(=O)NC2(c3cccc4ccccc34)COC2)c1 [Compound 451, 2-Methyl-5-(2-(methylamino)ethoxy)-N-(3-(naphthalen-1-yl)oxetan-3-yl)benzamide] | < 0.1 |
| Cc1cc2cc(CN)[nH]c2cc1C(=O)NC(C)(C)c1cccc2ccccc12 [Compound 281] | > 5 |
| Cc1ccc(OCCN(C)C)cc1C(=O)NC1(c2cccc(C3=CCCCC3)c2)CC1 [Compound 338, 5-(2-(Dimethylamino)ethoxy)-2-methyl-N-(1-(2′,3′,4′,5′-tetrahydro-[1,1′-biphenyl]-3-yl)cyclopropyl)benzamide] | 1 to 5 |
| Cc1cc2cc(CNC(=O)OC(C)(C)C)[nH]c2cc1C(=O)NC1(c2cccc3ccccc23)CC1 [Compound 180, tert-Butyl((5-methyl-6-((1-(naphthalen-1-yl)cyclopropyl)carbamoyl)-1H-indol-2-yl)methyl)carbamate] | 0.1 to 1 |
